What was measured:
Format in all cases: in vivo
[1] = system: tomato; test: Tomato petri plate assay; conditions: Solanum lycopersicum, 144 h; 10 ppm; after 6 days of continuous exposure; read-out: Percent Increase (percent change in primary tomato root length)
Procedure: For tomato, the plants were grown in disposable (150 mm) sterile plastic petri plates (Falcon, BD Biosciences, Franklin Lakes, N.J.). In the tomato assay, a single sheet of Whatman #1 filter paper was placed at the bottom of the plate, 15 tomato seeds were added, and 10 mL of treatment solution was added. At the end of 6 d, the 10 largest seedlings were selected for measurement from each plate. In each study, a minimum of 3 replicate plates were used. In tomato, several S-Benzylthiouracil compounds were tested to determine the effects on root growth.

[2] = system: Arabidopsis accession Columbia; test: Arabidopsis petri plate (agar medium) assay, root growth; conditions: 6 days after sowing, control 3.3
Procedure: For Arabidopsis, a solid medium was required. Typically, half-strength MS salts were dissolved in water, and 1% (w/v) BactoAgar (DIFCO) was added. Following autoclaving, sterile S-Benzylthiouracil solutions were added to medium prior to pouring 30 mL of agar medium per petri plate. Arabidopsis seeds were sown in a sterile manner, and seeds were germinated and grew on the agar surface until primary root length was measured.
Of increased importance for understanding mode of action, Arabidopsis has become the model system of choice. In Table 20, the effect of Compound 1 in growth medium on root growth of Arabidopsis accession Columbia is shown.

[3] = system: radish cv. Cherry Belle; test: Radish assay, continuous exposure; conditions: for Root Length / Shoot Length: 6 days; for Root Length: control 3.2; for Shoot Length: control 4.0
Source text: In order to determine if a root crop was sensitive to a S-Benzylthiouracil, we tested the effect of Compound 1 on radish cv. Cherry Belle (Table 21).

[4] = system: Maize (cultivar; Kuromochi); test: Maize growth promotion by seed treatment; conditions: for Percent (shoot weight, untreated control = 100) / Average weight of the shoots: 18th day after seeding; for Average weight of the shoots: control 3.8
Procedure: Maize seeds (cultivar; Kuromochi) were treated with Compound 1 at dose rates of 0.005 grams to 0.5 gram per 100 kilogram seeds. The seeds were sown into a soil pot (one seed/pot) and then cultivated in a growth chamber at a temperature of 27° C. and a day length of 16 hours for 18 days. On the 18th day after seeding, the fresh shoot weight of each plant was examined for 3 replicates.

[5] = system: Rice (cultivar; Nipponbare); test: Rice growth enhancement by seed treatment under low temperature stress; set-up: Average weight of the shoots: unit not given here; conditions: for Average weight of the shoots: 4° C. for 6 days, 27th day, control 15.4
Procedure: Rice seeds (cultivar; Nipponbare) were treated with the Compound 1 at dose rates of 0.5 gram to 50 grams per 100 kilogram seeds. Treated rice seeds were sown and cultivated in 2-fold diluted Kimura B hydroponic solution (Plant Science 119:39-47 (1996) in a growth chamber at a temperature of 28° C. (day)/23° C. (night) and a day length of 12 hours for 10 days.
Following hydroponic cultivation for 10 days the plants were exposed to low temperature stress at 4° C. for 6 days at a day length of 12 hours in a growth chamber. After the low temperature stress treatment, the plants were transferred to 4-fold diluted Hoagland's hydroponic solution (California Agricultural Experiment Station 1950 Circular 347 pp. 34) and cultivated for […] at a temperature of 28° C. and a day length of 12 hours. On the 27th day of the sequential hydroponic cultivation, each fresh shoot weight of the plant was measured for 4 replicates.

[6] = system: Rice (cultivar; Nipponbare); test: Rice growth enhancement by hydroponic treatment under drought stress
Procedure: Germinated rice seeds (cultivar; Nipponbare) were cultivated in 2-fold diluted Kimura B hydroponic solution in a growth chamber at a temperature of 28° C. (day)/23° C. (night) and a day length of 12 hours for 14 days. Drought stress was provided by withdrawal of the hydroponic solution from the culture tube for 2 days in a growth chamber at a temperature of 28° C. (day)/23° C. (night) and a day length of 12 hours. After the drought treatment, plants were cultivated in 2-fold diluted Hoagland's hydroponic solution in a growth chamber at a temperature of 28° C. (day)/23° C. (night)) and a day length of 12 hours for 14 days. Then the total fresh weight of the shoots of 5 plants was measured for 3 replicates.
Germinated rice seeds (cultivar; Nipponbare) were cultivated in 2-fold diluted Kimura B hydroponic solution including 1 ppm of the Compound 1 and 0.01% dimethyl sulfoxide in a growth chamber at a temperature of 28° C. (day)/23° C. (night)) and a day length of 12 hours for 14 days. As an untreated control group, the plants were cultivated in the hydroponic solution without Compound 1.
Drought stress was provided by withdrawal of the hydroponic solution from the culture tube for 2 days in a growth chamber at a temperature of 28° C. (day)/23° C. (night) and a day length of 12 hours. After the drought treatment, the treated plants were cultivated in 2-fold diluted Hoagland's hydroponic solution in a growth chamber at a temperature of 28° C. (day)/23° C. (night) and a day length of 12 hours for 14 days, and then total fresh weight of the shoots of 5 plants was examined for 3 replicates.

[7] = seed treatment 0.005 grams/100-kg seeds
[8] = seed treatment 0.05 grams/100-kg seeds
[9] = seed treatment 0.5 grams/100-kg seeds

With `Oc1ccnc(SCc2cccc(F)c2)n1` [Compound 1, S-(3-Fluorobenzyl)-2-thiouracil] the change in vivo at 10 ppm [1] was 8.3%, the “Root Length” value ([2]; 0.1 ppm) was 3.7 cm and the “Root Length” value ([2]; 0.25 ppm) was 4.4 cm. The “Root Length” value ([2]; 0.5 ppm) was 3.7 cm, the “Root Length” value ([2]; 1.0 ppm) was 3.8 cm and the “Root Length” value ([3]; 1 ppm) was 4.1 cm. The “Shoot Length” value ([3]; 1 ppm) was 4.9 cm, the “Root Length” value ([3]; 10 ppm) was 3.0 cm and the “Shoot Length” value ([3]; 10 ppm) was 3.3 cm. For the same molecule, the “Effect on radish root and shoot growth, in words” value ([3]; continuous exposure) was “increased root and shoot growth”, the “Average fresh shoot weight versus untreated control, in words” value ([4]; across 0.005 to 0.5 gram per 100 kilogram seeds) was “larger than that of the untreated control group” and the “Percent (shoot weight, untreated control = 100)” value (shortened to “Percent”) [4, 7] was 104%. The “Average weight of the shoots” value [4, 7] was 4.0 grams/plant, the “Percent” value [4, 8] was 133% and the “Average weight of the shoots” value [4, 8] was 5.1 grams/plant. The “Percent” value [4, 9] was 115%, the “Average weight of the shoots” value [4, 9] was 4.4 grams/plant and the “Average weight of the shoots” value ([5]; 0.5 grams/100-kg seeds) was 19.7. The “Percent” value ([5]; 0.5 grams/100-kg seeds, low temperature stress) was 128%, the “Average weight of the shoots” value ([5]; 5 grams/100-kg seeds) was 39.8 and the “Percent” value ([5]; 5 grams/100-kg seeds, low temperature stress) was 258%. For the same molecule, the “Average weight of the shoots” value ([5]; 50 grams/100-kg seeds) was 34.8, the “Percent” value ([5]; 50 grams/100-kg seeds, low temperature stress) was 226% and the “Average fresh shoot weight versus untreated control, in words” value ([5]; across 0.5 to 50 grams per 100 kilogram seeds, low temperature stress) was “larger than that of the untreated control”. For the same molecule, the “Percent” value ([6]; 1 ppm in hydroponic solution, drought stress) was 112%, the “Average weight of the shoots” value ([6]; 1 ppm in hydroponic solution, drought stress 2 days, control 0.43) was 0.48 gram/5 plants and the “Average shoot weight versus untreated control, in words” value ([6]; 1 ppm, drought stress) was “larger than that of the untreated control”.
